Measurements published in US9783505B2, “Substituted diaminopyrimidyl compounds, compositions thereof, and methods of treatment therewith” (Signal Pharmaceuticals, LLC, priority 2013, dated 2017).
Where two headings read alike, the source gives them in different places.

Molecular target: T1, His-PKC-theta (Homo sapiens, UniProt Q04759)
T1 construct: His; purchased Invitrogen
Test: PKC-theta Assay (384-well time resolved fluorescence, IMAP TR-FRET)
Format: biochemical
Details: read-out: Act. Level (IC50 in the PKC-theta Assay)
Outline: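 Fam-labeled S6-derived peptide (200 nM) and 10 μM ATP were reacted with 142 pM enzyme for 2 h at room temperature in HEPES pH 7.6 buffer with MgCl2, DTT, Triton X-100, BSA and EDTA. The reaction was stopped with IMAP progressive binding reagent plus Tb donor, incubated overnight, then TR-FRET read.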

T1 sequence (Q04759 whole entry): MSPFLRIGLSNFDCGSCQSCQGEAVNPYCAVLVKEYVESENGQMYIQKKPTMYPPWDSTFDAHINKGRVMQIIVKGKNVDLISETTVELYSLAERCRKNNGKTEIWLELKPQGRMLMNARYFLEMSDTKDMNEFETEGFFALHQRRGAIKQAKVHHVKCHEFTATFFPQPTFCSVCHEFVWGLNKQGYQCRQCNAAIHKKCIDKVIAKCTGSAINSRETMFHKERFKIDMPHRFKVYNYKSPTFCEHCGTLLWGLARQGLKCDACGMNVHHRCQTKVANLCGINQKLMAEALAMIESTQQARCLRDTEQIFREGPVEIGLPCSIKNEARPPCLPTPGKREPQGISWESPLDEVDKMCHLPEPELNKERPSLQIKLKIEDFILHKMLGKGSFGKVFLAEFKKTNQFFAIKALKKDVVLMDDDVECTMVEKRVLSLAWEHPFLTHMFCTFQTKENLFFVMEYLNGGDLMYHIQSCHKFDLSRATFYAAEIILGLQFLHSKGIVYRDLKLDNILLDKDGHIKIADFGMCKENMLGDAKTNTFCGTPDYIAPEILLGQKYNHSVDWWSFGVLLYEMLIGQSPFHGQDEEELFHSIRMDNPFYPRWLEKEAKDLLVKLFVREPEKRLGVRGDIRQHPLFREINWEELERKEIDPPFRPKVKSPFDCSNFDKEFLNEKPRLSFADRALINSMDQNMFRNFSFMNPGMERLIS

SMILES	IC50	IC50 (Table 2)
CCc1ncncc1CNc1ncc(C#N)c(N[C@H]2C[C@H](O)C2(C)C)n1 [Cmpd 142]	0.8 to 2 µM	
CC1(C)[C@@H](Nc2nc(NCc3cnccc3C(F)(F)F)ncc2C(F)(F)F)C[C@@H]1O [Cmpd 143]	0.8 to 2 µM	
CC1(C)[C@H](CO)C[C@@H]1Nc1nc(NCc2c[n+]([O-])ccc2C(F)(F)F)ncc1C#N [Cmpd 145]	0.8 to 2 µM	
Cc1cc(C(F)(F)F)c(CNc2ncc(C#N)c(N[C@H]3CC[C@@](C)(O)CC3)n2)c[n+]1[O-] [Cmpd 146]	0.8 to 2 µM	
Cc1[nH]c2ccc(C#N)cc2c1CCNc1ncc(C#N)c(N[C@H]2CC[C@@H](O)CC2)n1 [Cmpd 148]	2 to 10 µM	
CC1(C)[C@@H](O)C[C@H]1Nc1nc(NCCc2ccccc2)ncc1C#N [Cmpd 149]		0.1 to 0.8 µM
Cc1[nH]c2c(F)cc(F)cc2c1CCNc1ncc(C#N)c(N[C@H]2CC[C@@H](O)CC2)n1 [Cmpd 149]	2 to 10 µM	
N#Cc1cnc(NCCc2ccc3ccccc3n2)nc1N[C@H]1CC[C@@H](O)CC1 [Cmpd 150]	2 to 10 µM	
N#Cc1cnc(NCCc2ncccc2C(F)(F)F)nc1N[C@H]1CC[C@@H](O)CC1 [Cmpd 151]	2 to 10 µM	
Cc1cnccc1CCNc1ncc(C#N)c(N[C@H]2CC[C@@H](O)CC2)n1 [Cmpd 152]	2 to 10 µM	
CC(F)(F)COc1ncncc1CNc1ncc(C#N)c(N[C@H]2CC[C@@H](O)CC2)n1 [Cmpd 153]	< 0.1 µM	
N#Cc1cnc(NCCc2c[nH]c3ccccc23)nc1N[C@H]1CC[C@@H](O)CC1 [Cmpd 154]	0.1 to 0.8 µM	
N#Cc1cnc(NCCC2C(=O)Nc3ccccc32)nc1N[C@H]1CC[C@@H](O)CC1 (some centres unmarked) [Cmpd 155]	0.1 to 0.8 µM	
CC(F)(F)COc1ncncc1CNc1ncc(C#N)c(NC23CCC(O)(CC2)CC3)n1 [Cmpd 156]	0.8 to 2 µM	
CC1(C)[C@@H](Nc2nc(NCCc3cccc(Cl)c3)ncc2C#N)C[C@@H]1N [Cmpd 157]		0.1 to 0.8 µM
C[C@@H]1CC[C@@H](Nc2nc(NCc3cncnc3OCC(C)(F)F)ncc2C#N)C[C@H]1O [Cmpd 157]	0.1 to 0.8 µM	
CC1(C)C[C@H](Nc2nc(NCCC3C(=O)Nc4ccccc43)ncc2C#N)CC[C@H]1O (some centres unmarked) [Cmpd 158]	0.1 to 0.8 µM	
CC1(C)[C@H](N)C[C@H]1Nc1nc(NCCc2cccc(Cl)c2)ncc1C#N [Cmpd 158]		0.8 to 2 µM

The next lines start with the values.

IC50	IC50 (Table 2)	SMILES
	0.8 to 2 µM	CC1(C)[C@@H](O)C[C@H]1Nc1nc(NCCc2ccc(C#N)c(OC(F)(F)F)c2)ncc1C#N [Cmpd 143]
	0.8 to 2 µM	CC1(C)C[C@H](Nc2nc(NCCc3ccc(C#N)c(OC(F)(F)F)c3)ncc2C#N)CC[C@@H]1O [Cmpd 144]
	0.1 to 0.8 µM	CC1(C)[C@@H](O)C[C@H]1Nc1nc(NCCc2ccc(C#N)c(Br)c2)ncc1C#N [Cmpd 145]
	< 0.1 µM	CC1(C)C[C@H](Nc2nc(NCCc3ccc(C#N)c(Br)c3)ncc2C#N)CC[C@@H]1O [Cmpd 146]
0.1 to 0.8 µM		CC1(C)C[C@H](Nc2nc(NCCc3cccc4cccnc34)ncc2C#N)CC[C@@H]1O [Cmpd 147]
	0.1 to 0.8 µM	CC1(C)[C@@H](O)C[C@H]1Nc1nc(NCCc2ccc(C#N)c(F)c2)ncc1C#N [Cmpd 147]
	0.1 to 0.8 µM	CC1(C)C[C@H](Nc2nc(NCCc3ccc(C#N)c(F)c3)ncc2C#N)CC[C@@H]1O [Cmpd 148]
	< 0.1 µM	CC1(C)C[C@H](Nc2nc(NCCc3ccccc3)ncc2C#N)CC[C@@H]1O [Cmpd 150]
	< 0.1 µM	CC(F)(F)COc1ccc(CCNc2ncc(C#N)c(N[C@@H]3CC[C@H](O)C(C)(C)C3)n2)cc1 [Cmpd 151]
	0.8 to 2 µM	CC(F)(F)COc1ccccc1CCNc1ncc(C#N)c(N[C@@H]2CC[C@H](O)C(C)(C)C2)n1 [Cmpd 152]
	0.8 to 2 µM	CC1(C)C[C@H](Nc2nc(NCCc3ccc(C(=O)O)cc3)ncc2C#N)CC[C@@H]1O [Cmpd 153]
	0.1 to 0.8 µM	CC1(C)C[C@H](Nc2nc(NCCc3ccc(C(N)=O)cc3)ncc2C#N)CC[C@@H]1O [Cmpd 154]
	0.1 to 0.8 µM	CC(F)(F)COc1cccc(CCNc2ncc(C#N)c(N[C@@H]3CC[C@H](O)C(C)(C)C3)n2)c1 [Cmpd 155]
	0.1 to 0.8 µM	CC1(C)C[C@H](Nc2nc(NCCc3ccccc3C#N)ncc2C#N)CC[C@@H]1O [Cmpd 156]
